For data set [1], the system named is A375 (melanoma). Nature of the data set: MTT cytotoxicity assay on A375 cells. The data set is classed as cell-based, human. Particulars: for IC50: Homo sapiens, A-375, 24 h incubation, read-out: IC50 ± SD, A375; for IC50 ± SD, A375: 24 h incubation. The method, then:
(§1) Cytotoxic activity of the investigated compounds was evaluated against T98G (glioblastoma), HepG2 (hepatoma), LS-180 (colon cancer) and A375 (melanoma) cell lines. Human normal skin fibroblasts, CCD-1059Sk (CRL-2072), were used as reference (non-cancerous) cells. All of the cell lines were obtained from American Type Culture Collection (ATCC; Manassas, VA, USA). A375, T98G and CCD-1059Sk cells were cultured in Dulbecco’s Modified Eagle’s Medium (DMEM) (Sigma Aldrich, St. Louis, MO, USA) supplemented with 10% FBS, penicillin (100 U/mL) and streptomycin (100 μg/mL). LS-180 and HepG2 cells were cultured in Eagle’s Minimum Essential Medium supplemented with 10% FBS, penicillin (100 U/mL) and streptomycin (100 μg/mL). All of the cells were maintained at 37 °C in a humidified atmosphere of 5% CO2. The compounds were dissolved in DMSO in order to obtain stock solutions. At the day of the experiment, the suspension of cells (1 × 10^5 cells/mL) was distributed onto 96-well plates at a volume of 100 μL/well. After attachment, the cells were treated with the increased concentrations of the tested compounds in medium containing 2% FBS and incubated for 24 h. Then, the medium was removed from wells, and cells were rinsed with PBS. Afterwards, 15 μL of MTT working solution (5 mg/mL in PBS) was added to each well, and the plates were incubated for 3 h. Subsequently, 100 μL of 10% SDS solution was added to each well in order to dissolve the precipitated formazan crystals. After overnight incubation at 37 °C, the absorbance of the obtained solution was measured at λ = 570 nm using a microplate reader (Epoch, BioTek Instruments, Inc., Winooski, VT, USA). At least two independent experiments were performed in triplicate. […] IC50 values of the investigated derivatives and positive control (etoposide) were calculated using the IC50 online calculator [101].
On the technique in general: Tetrazolium assays rely on reduction of a dye to a coloured formazan, in cell work by metabolically active cells.

The nature of data set [2]: ABTS radical scavenging assay. Particulars: ±SD; 10 min, 30 °C. The method, then: The ABTS radical scavenging assay of samples (ligands or complexes) was performed with ascorbic acid as a positive control. Briefly, 30 μL of different concentrations of the samples, dissolved in DMSO, was mixed with 170 μL of ABTS solution (2 mM ABTS diammonium salt, 3.5 mM potassium persulfate) and completed with water to a final volume of 300 μL. ABTS solution with DMSO was used as a control. […] ABTS inhibition was calculated according to the following equation:ABTS Inhibition (%) = [(Acontrol − Asample)/Acontrol] × 100% The radical scavenging activity of the samples was shown as the IC50 value (the concentration of the analyzed samples that caused a decrease in the non-reduced form of the ABTS radical by 50%).

The test system of data set [3] is HepG2 (hepatoma). As to the kind of experiment: MTT cytotoxicity assay on HepG2 cells. The data set is classed as cell-based, human. As to conditions: MTT, 24 h incubation; for IC50: Homo sapiens, HepG2, read-out: IC50 ± SD, HepG2. As to the method:
as §1

For data set [4], the system named is Candida albicans ATCC 102231. Nature of the data set: Two-fold microdilution broth method, MIC. The data set is classed as cell-based. Particulars: 35 °C, 24 h; for MIC: Candida albicans, ATCC102231. The source says:
(§2) Antibacterial and antifungal activities of the free ligands L2, L3 and L4 and the corresponding copper(II) complexes C2, C3 and C4 were screened using the two-fold microdilution broth method. Minimal inhibitory concentrations (MICs) of tested compounds for the panel of reference Gram-positive bacteria, including Staphylococcus aureus ATCC 25923, Staphylococcus aureus ATCC BAA-1707, Staphylococcus epidermidis ATCC 12228, Micrococcus luteus ATCC 10240 and Bacillus cereus ATCC 10876; Gram-negative bacteria, including Salmonella Typhimurium ATCC 14028, Escherichia coli ATCC 25922, Proteus mirabilis ATCC 12453, Klebsiella pneumoniae ATCC 13883 and Pseudomonas aeruginosa ATCC 9027; and yeasts, including Candida albicans ATCC 102231, Candida parapsilosis ATCC 22019 and Candida glabrata ATCC 90030 were determined. The procedure has been described in detail before. Briefly, the solutions of tested compounds dissolved in dimethylosulfoxide (DMSO) were suspended in Mueller–Hinton broth for bacteria or Mueller–Hinton broth with 2% glucose for fungi. Then, the series of two-fold dilutions were carried out in the sterile Nunc™ MicroWell™ 96-Well Microplates (ThermoFisher Scientific Inc.), obtaining concentrations from 1000 to 7.8 mg/L in the appropriate medium. Simultaneously, the inocula of 24 h cultures of microorganisms in sterile physiological saline (0.5 McFarland standard density) were prepared and added to each well, obtaining final density of 5 × 10^5 CFU/mL for bacteria and 5 × 10^4 CFU/mL for yeasts. Proper positive (inoculum without tested compound) and negative (compound without inoculum) controls were added in each microplate. After incubation (35 °C, 24 h), the growth of microorganisms was measured spectrophotometrically at 600 nm (BioTEK ELx808, Bio-Tek Instruments, Inc., Winooski, VT, USA). MICs were marked at the lowest concentration of the compound without the growth of bacteria or fungi.

The subject of data set [5] is Candida glabrata ATCC 90030. Nature of the data set: Two-fold microdilution broth method, MIC. The data set is classed as cell-based. Particulars: 35 °C, 24 h; for MIC: Nakaseomyces glabratus, ATCC90030.
From the text: as §2
Background: Dilution methods test growth across graded concentrations, often in twofold steps.

Data set [6] concerns Candida parapsilosis ATCC 22019. Nature of the data set: Two-fold microdilution broth method, MIC. The data set is classed as cell-based. As to conditions: 35 °C, 24 h; for MIC: Lodderomyces parapsilosis, ATCC22019.
From the text: as §2

Data set [7] deals with T98G (glioblastoma). Nature of the data set: MTT cytotoxicity assay on T98G cells. The data set is classed as cell-based. Particulars: MTT, 24 h incubation; for IC50: Homo sapiens, T98G, read-out: IC50 ± SD, T98G. As to the method:
as §1

The subject of data set [8] is LS-180 (colon cancer). As to the kind of experiment: MTT cytotoxicity assay on LS-180 cells. The data set is classed as cell-based, human. Particulars: for IC50: Homo sapiens, LS180, 24 h incubation, read-out: IC50 ± SD, LS180; for IC50 ± SD, LS180: 24 h incubation. The method, then:
as §1

For data set [9], the system named is Candida. As to the kind of experiment: Two-fold microdilution broth method, MIC, yeasts (summary). Format: cell-based. Particulars: range over the three yeast strains; read-out: MIC, anti-Candida activity. From the text: Antibacterial and antifungal activities of the free ligands L2, L3 and L4 and the corresponding copper(II) complexes C2, C3 and C4 were screened using the two-fold microdilution broth method. Minimal inhibitory concentrations (MICs) of tested compounds for the panel of reference Gram-positive bacteria, including Staphylococcus aureus ATCC 25923, Staphylococcus aureus ATCC BAA-1707, Staphylococcus epidermidis ATCC 12228, Micrococcus luteus ATCC 10240 and Bacillus cereus ATCC 10876; Gram-negative bacteria, including Salmonella Typhimurium ATCC 14028, Escherichia coli ATCC 25922, Proteus mirabilis ATCC 12453, Klebsiella pneumoniae ATCC 13883 and Pseudomonas aeruginosa ATCC 9027; and yeasts, including Candida albicans ATCC 102231, Candida parapsilosis ATCC 22019 and Candida glabrata ATCC 90030 were determined. The procedure has been described in detail before. Briefly, the solutions of tested compounds dissolved in dimethylosulfoxide (DMSO) were suspended in Mueller–Hinton broth for bacteria or Mueller–Hinton broth with 2% glucose for fungi. […] After incubation (35 °C, 24 h), the growth of microorganisms was measured spectrophotometrically at 600 nm (BioTEK ELx808, Bio-Tek Instruments, Inc., Winooski, VT, USA). […]

The subject of data set [10] is CCD-1059Sk (human normal skin fibroblasts). As to the kind of experiment: MTT cytotoxicity assay on non-cancerous fibroblasts. The data set is classed as cell-based. Particulars: 24 h incubation, non-cancerous cells; for IC50: Homo sapiens, CCD-1059Sk, read-out: IC50 ± SD, CCD-1059-Sk. As to the method: as §1
Data set [11] deals with A375, HepG2, LS-180, T98G and CCD-1059Sk cell lines. Nature of the data set: MTT cytotoxicity assay, summary statements over several cell lines. Format: cell-based. As to conditions: for IC50: Homo sapiens, all cell lines (A375, HepG2, LS-180, T98G, CCD-1059-Sk). The method, then: as §1
The nature of data set [12]: DPPH radical scavenging assay. As to conditions: ±SD; 30 min, room temperature. The method, then: The DPPH radical scavenging assay of samples was performed with ascorbic acid as a positive control. Briefly, 100 μL of different concentrations of the complexes, dissolved in DMSO, was mixed with 100 μL of 0.06 mM DPPH methanolic solution and incubated at room temperature in the dark for 30 min. The change in absorbance at λ = 517 nm was analyzed with the use of a 96-well microplate reader (Epoch, BioTek System, Winooski, VT, USA). The control was composed of DPPH and DMSO. DPPH inhibition was calculated according to the following equation:DPPH Inhibition (%) = [(Acontrol − Asample)/Acontrol] × 100% The radical scavenging activity of the samples was shown as the IC50 value (the concentration of the analyzed samples that caused a decrease in the non-reduced form of the DPPH radical by 50%).
In general terms: The DPPH test is a chemical assay of radical scavenging.

Results on five molecules are retold here after publication PMC10779222, “Copper(II) Complexes with 1-(Isoquinolin-3-yl)heteroalkyl-2-ones: Synthesis, Structure and Evaluation of Anticancer, Antimicrobial and Antioxidant Potential” (International Journal of Molecular Sciences, 2023).

Values after ≈ are worked out from the molar mass of the structure shown. Values joined by “and” are separate entries in the source; they are usually repeats but may differ in a detail not shown here. Equal values may be shown once. Bounds are passed on as bounds.

One may read the IC50 as the midpoint of a concentration-inhibition curve. In general, MIC refers to the least concentration at which growth counts as inhibited. As to `CN1CCN(c2cc3ccccc3cn2)C1=O` [L3, 1-(isoquinolin-3-yl)-3-methylimidazolidin-2-one], the half-inhibitory concentration (IC50) in data set [1], in data set [3], in data set [7], in data set [8], in [10] and in data set [11] was more than 200 mg/L each time. The “IC50 ABTS” value in data set [2] is 96.76 mg/L and 96.67 ± 2.84 mg/L. Besides, the minimum inhibitory concentration (MIC) was 250 mg/L (≈ 1100 µM) in data set [4], 250 mg/L (≈ 1100 µM) in data set [5], 125 mg/L (≈ 550 µM) in data set [6] and 125 to 250 mg/L (≈ 550 to 1100 µM) in data set [9].

By melting point is commonly meant the temperature of the solid-liquid transition. As for `O=C1NCCN1c1cc2ccccc2cn1` [L2, 1-(isoquinolin-3-yl)imidazolidin-2-one], the melting point fell in the range of 234 to 236 °C. Besides, the IC50 in data set [1] was more than 200 mg/L. In addition, in data set [2], the “IC50 ABTS” value worked out at 82.08 ± 2.77 mg/L (≈ 385 µM). The IC50 in data set [3] was more than 200 mg/L. Further, the MIC in data set [4] is 500 mg/L (≈ 2340 µM). Moreover, the MIC in data set [5] was more than 1000 mg/L. The molecule further yielded an MIC in data set [6] of 1000 mg/L (≈ 4690 µM). For the same molecule, the IC50 in [7] was more than 200 mg/L. Also, the IC50 in [8] is more than 200 mg/L. In addition, the IC50 in data set [10] is more than 200 mg/L. In addition, in data set [11], the IC50 was more than 200 mg/L.

`O=C1CCN1c1cc2ccccc2cn1.O=C1CCN1c1cc2ccccc2cn1.[Cl][Cu][Cl]` [C1, Dichloro{bis[1-(Isoquinolin-3-yl)azetidin-2-one]}copper(II)]: in data set [1], the “IC50 ± SD, A375” value turned out to be 37.97 ± 3.01 mg/L. The “IC50 ABTS” value in [2] was found to be 112.67 ± 1.8 mg/L. The “IC50 ± SD, HepG2” value in [3] was 14.89 ± 0.56 mg/L. For the same molecule, the “IC50 ± SD, T98G” value in data set [7] came to 8.25 ± 0.36 mg/L. Further, the “IC50 ± SD, LS180” value in [8] was found to be 11.46 ± 0.69 mg/L. Also, in [12], the “IC50 DPPH” value is 37.45 ± 0.66 mg/L. Moreover, the “IC50 ± SD, CCD-1059-Sk” value in [10] amounted to 18.83 ± 0.91 mg/L. Besides, the “IC50, HepG2 and T98G” value in data set [11] (range over HepG2 and T98G) was in the range of 8.25 to 14.89 mg/L.

As to `CCN1CCN(c2cc3ccccc3cn2)C1=O.[Cl][Cu][Cl]` [C4, Dichloro[1-ethyl-3-(isoquinolin-3-yl)imidazolidin-2-one]copper(II)], the “IC50 ± SD, A375” value in [1] stood at 37.80 ± 3.11 mg/L. In addition, in data set [2], the “IC50 ABTS” value stood at 72.5 ± 0.97 mg/L. Further, the “MIC, C. albicans ATCC 102231” value in [4] came out at 500 mg/L. Also, the “MIC, C. glabrata ATCC 90030” value in data set [5] is reported as more than 1000 mg/L. In addition, the “MIC, C. parapsilosis ATCC 22019” value in data set [6] is more than 1000 mg/L. Besides, in [7], the “IC50 ± SD, T98G” value worked out at 9.27 ± 0.11 mg/L. In addition, the “IC50 ± SD, LS180” value in data set [8] is 5.92 ± 0.54 mg/L. The “IC50 DPPH” value in data set [12] was determined as 26.46 ± 1.04 mg/L. In data set [10], the “IC50 ± SD, CCD-1059-Sk” value came to 18.25 ± 1.37 mg/L. Besides, the “IC50, HepG2, LS180 and T98G” value in data set [11] (range over HepG2, LS180 and T98G) lay in the range of 5.92 to 9.27 mg/L.

For `O=C1CCN1c1cc2ccccc2cn1` [L1, 1-(isoquinolin-3-yl)azetidin-2-one], the IC50 in data set [1], in [3], in [7], in data set [8], in [10] and in data set [11] was more than 200 mg/L in each case. The “IC50 ABTS” value in data set [2] turned out to be 183.21 ± 2.45 mg/L (≈ 924 µM).
